Reference: patent publication US20170283440A1, “CARM1 INHIBITORS AND USES THEREOF” (Epizyme, Inc., priority 2014, published 2017)

Each molecule was assayed against T1, Human CARM1 (PRMT4) (Homo sapiens, UniProt Q86X55) (assay: CARM1 enzyme assay on peptide substrate (3H-SAM Flashplate)). Conditions: CARM1 0.25 nM, 3H-SAM 30 nM, peptide 250 nM; read-out: Biochem IC50.
T1 construct: Flag-CARM1-His was eluted with 200 ug/ml FLAG peptide in buffer A; made in house; host or cells: HEK 293F cells infected with recombinant baculovirus (pFastBacMam)
Format: biochemical
Description: S-adenosylmethionine (SAM), S-adenosylhomocysteine (SAH), bicine, Tween20, dimethylsulfoxide (DMSO), bovine skin gelatin (BSG), sodium butyrate and Tris(2-carboxyethyl)phosphine hydrochloride solution (TCEP) were purchased from Sigma-Aldrich at the highest level of purity possible. ^3H-SAM was purchase from American Radiolabeled Chemicals with a specific activity of 80 Ci/mmol. 384-well streptavidin Flashplates were purchased from PerkinElmer.
Peptide representative of human histone H3 residues 16-30 was synthesized with an N-terminal linker-affinity tag motif and a C-terminal amide cap by 21st Century Biochemicals. The peptide was purified by high-performance liquid chromatography (HPLC) to greater than 95% purity and confirmed by liquid chromatography mass spectrometry (LC-MS). The sequence was Biot-Ahx-[…]-amide and contained a monomethylated arginine at position 26 (SEQ ID NO.:1).
Human CARM1 (PRMT4) (NM_199141.1) transcript clone was amplified from an HEK 293 cDNA library, incorporating a flanking 5′ sequence encoding a FLAG tag ([…]) (SEQ ID NO.:2) fused directly to Ala 2 of CARM1 and 3′ sequence encoding a hexa His sequence ([…]) (SEQ ID NO.:3) fused directly to Ser 608. The gene sequence encoding isoform1 containing a deletion of amino acids 539-561 was amplified subsequently and subcloned into pFastBacMam (Viva Biotech).
Recombinant baculovirus were generated according to Bac-to-Bac kit instructions (Life Technologies). Protein over-expression was accomplished by infecting exponentially growing HEK 293F cell culture at 1.3×10^6 cell/ml with virus (MOI=10) in the presence of 8 mM sodium butyrate. Infections were carried out at 37° C. for 48 hours, harvested by centrifugation, and stored at −80° C. for purification.
Column was washed with 500 mM NaCl in buffer A and Flag-CARM1-His was eluted with 200 ug/ml FLAG peptide in buffer A. Pooled fractions were dialyzed in 20 mM Tris, 150 mM NaCl, 5% glycerol and 1 mM DTT, pH 7.8. The purity of recovered protein was 94.
The assays were all performed in a buffer consisting of 20 mM Bicine (pH=7.6), 1 mM TCEP, 0.005% BSG, and 0.002% Tween 20, prepared on the day of use. Compounds in 100% DMSO (1 ul) were spotted into a polypropylene 384-well V-bottom plates (Greiner) using a Platemate Plus outfitted with a 384-channel head (Thermo Scientific). DMSO (1 ul) was added to Columns 11, 12, 23, 24, rows A-H for the maximum signal control and 1 ul of SAH, a known product and inhibitor of CARM1, was added to columns 11, 12, 23, 24, rows I—P for the minimum signal control. A cocktail (40 ul) containing the CARM1 enzyme was added by Multidrop Combi (Thermo-Fisher). The compounds were allowed to incubate with CARM1 for 30 min at room temperature, then a cocktail (10 ul) containing ^3H-SAM and peptide was added to initiate the reaction (final volume=51 ul). The final concentrations of the components were as follows: CARM1 was 0.25 nM, ^3H-SAM was 30 nM, peptide was 250 nM, SAH in the minimum signal control wells was 1 mM, and the DMSO concentration was 2%. The assays were stopped by the addition of non-radiolabeled SAM (10 ul) to a final concentration of 300 uM, which dilutes the ^3H-SAM to a level where its incorporation into the peptide substrate is no longer detectable. 50 ul of the reaction in the 384-well polypropylene plate was then transferred to a 384-well Flashplate and the biotinylated peptides were allowed to bind to the streptavidin surface for at least 1 hour before being washed once with 0.1% Tween20 in a Biotek ELx405 plate washer. The plates were then read in a PerkinElmer TopCount plate reader to measure the quantity of ^3H-labeled peptide bound to the Flashplate surface, measured as disintegrations per minute (dpm) or alternatively, referred to as counts per minute (cpm).
where dpm=disintegrations per minute, cmpd=signal in assay well, and min and max are the respective minimum and maximum signal controls. […]

T1 sequence (Q86X55 other isoform, or with tags, fused parts or gaps): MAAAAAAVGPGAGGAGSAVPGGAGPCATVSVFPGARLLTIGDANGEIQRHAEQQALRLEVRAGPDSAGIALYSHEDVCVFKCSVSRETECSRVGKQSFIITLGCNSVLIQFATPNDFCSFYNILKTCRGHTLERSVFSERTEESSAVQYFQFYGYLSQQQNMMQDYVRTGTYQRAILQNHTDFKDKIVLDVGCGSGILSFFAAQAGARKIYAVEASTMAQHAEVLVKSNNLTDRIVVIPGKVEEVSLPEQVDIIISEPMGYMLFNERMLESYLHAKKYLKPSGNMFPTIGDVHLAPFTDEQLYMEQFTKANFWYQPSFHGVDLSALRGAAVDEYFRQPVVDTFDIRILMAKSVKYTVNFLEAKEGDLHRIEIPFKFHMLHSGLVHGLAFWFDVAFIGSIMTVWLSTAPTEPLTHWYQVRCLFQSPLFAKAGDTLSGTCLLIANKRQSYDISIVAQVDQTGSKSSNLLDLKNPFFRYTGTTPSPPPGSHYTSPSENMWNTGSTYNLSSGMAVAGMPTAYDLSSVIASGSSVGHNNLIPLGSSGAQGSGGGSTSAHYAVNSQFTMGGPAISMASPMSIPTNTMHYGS

IC50 [nM] | SMILES
< 100 | CNCC(O)COc1cccc(-c2cc(-c3cnc4[nH]ccc4c3)nc3c(C(C)C)cnn23)c1 (centres unmarked) [Example 4-7]
< 100 | CNCC(O)COc1cc(OC)cc(-c2cc(C)n3ncc(C(C)C)c3n2)c1 (centres unmarked) [Example 5-6]
100 to 1000 | C=Cc1cc(OCC(O)CNC)cc(-c2cc(N3CCOCC3)n3ncc(C(C)C)c3n2)c1 (centres unmarked) [Example 17-6]
100 to 1000 | CNCC(O)COc1cc(Cl)cc(-c2cc(NC3C4COCC43)n3ncc(C(C)C)c3n2)c1 (centres unmarked) [Example 38-6]
100 to 1000 | CNCC(O)COc1cccc(-c2cc(N3CCOCC3)n3ncc(C(C)C)c3n2)c1 (centres unmarked) [Example 7-6]
< 100 | CC(C)(C)n1ncc2c(N3CCOCC3)nc(-c3cccc(OCC(O)CN)c3)nc21 (centres unmarked) [Example 9-5]
< 100 | CNC[C@H](O)COc1cccc(-c2cc(N3CCOCC3)n3ncc(C(C)C)c3n2)c1 [Example 9-6]
100 to 1000 | CNCC(O)COc1cccc(-c2cc(NCC#N)c3cnn(C(C)C)c3n2)c1 (centres unmarked) [Example 3-8]
< 100 | NCC(O)COc1cccc(-c2nc(NCc3cn4ccsc4n3)c3cnn(C4CC4)c3n2)c1 (centres unmarked) [Example 39-5]
< 100 | CNCC(O)COc1cc(Cl)cc(-c2cc(N(C)CCOC)n3ncc(C(C)C)c3n2)c1 (centres unmarked) [Example 30-6]
100 to 1000 | CC(C)n1ncc2c(N3CCOCC3)cc(-c3cc(OCC(O)CN)cc(OC(F)(F)F)c3)nc21 (centres unmarked) [Example 24-4]

The remaining lines, values behind:

SMILES | IC50 [nM]
CNCC(O)COc1cccc(-c2cc(NCCCCCNC(=O)c3ccn(C)n3)c3cnn(C(C)C)c3n2)c1 (centres unmarked) [Example 64-1] | 100 to 1000
CNCC(O)COc1cccc(-c2cc(NC(=O)NC)c3cnn(C(C)C)c3n2)c1 (centres unmarked) [Example 11-9] | 100 to 1000
CNCC(O)COc1cc(Cl)cc(-c2cc(NC3CCOC3)c3cnn(C(C)C)c3n2)c1 (centres unmarked) [Example 9-4] | < 100
NCC(O)COc1cccc(-c2nc(NCc3nccs3)c3cnn(C4CC4)c3n2)c1 (centres unmarked) [Example 18-5] | < 100
NCC(O)COc1cccc(-c2nc(NCc3cccnc3)c3cnn(C4CC4)c3n2)c1 (centres unmarked) [Example 11-5] | 100 to 1000
CNCC(O)COc1cc(OC)cc(-c2cc(N3CCC(O)CC3)n3ncc(C(C)C)c3n2)c1 (centres unmarked) [Example 37-6] | 100 to 1000
CNCC(O)COc1cc(Cl)cc(-c2cc(NC3CCOCC3)n3ncc(C(C)(C)C)c3n2)c1 (centres unmarked) [Example 48-6] | < 100
CNCC(O)COc1cc(OC)cc(-c2cc(N3CC4(CCOCC4)C3)n3ncc(C(C)C)c3n2)c1 (centres unmarked) [Example 49-6] | 100 to 1000
CNCC(O)COc1cc(CO)cc(-c2cc(NC3CCOCC3)c3cnn(C(C)C)c3n2)c1 (centres unmarked) [Example 23-9] | 100 to 1000
CNCC(O)COc1cc(NC)cc(-c2cc(N3CCOCC3)n3ncc(C(C)C)c3n2)c1 (centres unmarked) [Example 21-6] | < 100
CNCC(O)COc1cccc(-c2nc(N3[C@@H]4CC[C@H]3COC4)c3cnn(C4CC4)c3n2)c1 (some centres unmarked) [Example 5-5] | 100 to 1000

The molecules below were run on asymmetric di-methyl PABP1 in RKO cells (assay: RKO methylation assay (In Cell Western for asymmetric di-methyl PABP1)). Conditions: Homo sapiens, 48 hours incubation, read-out: Cellular IC50.
Format: cell-based
Summary of the method: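 RKO cells treated 48 h at 37 °C, then fixed, methanol-permeabilized and probed for asymmetric di-methyl PABP1 (16 h, 4 °C) with DRAQ5 counterstain; 800/700 nm intensity ratio read.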

IC50 [nM] | SMILES
> 20000 | CNCC(O)COc1cccc(-c2cc(-c3cnc4[nH]ccc4c3)nc3c(C(C)C)cnn23)c1 (centres unmarked) [Example 4-7]
> 20000 | CNCC(O)COc1cc(OC)cc(-c2cc(C)n3ncc(C(C)C)c3n2)c1 (centres unmarked) [Example 5-6]
> 20000 | C=Cc1cc(OCC(O)CNC)cc(-c2cc(N3CCOCC3)n3ncc(C(C)C)c3n2)c1 (centres unmarked) [Example 17-6]
> 20000 | CNCC(O)COc1cc(Cl)cc(-c2cc(NC3C4COCC43)n3ncc(C(C)C)c3n2)c1 (centres unmarked) [Example 38-6]
> 20000 | CNCC(O)COc1cccc(-c2cc(N3CCOCC3)n3ncc(C(C)C)c3n2)c1 (centres unmarked) [Example 7-6]
> 20000 | CC(C)(C)n1ncc2c(N3CCOCC3)nc(-c3cccc(OCC(O)CN)c3)nc21 (centres unmarked) [Example 9-5]
> 20000 | CNC[C@H](O)COc1cccc(-c2cc(N3CCOCC3)n3ncc(C(C)C)c3n2)c1 [Example 9-6]
> 20000 | CNCC(O)COc1cccc(-c2cc(NCC#N)c3cnn(C(C)C)c3n2)c1 (centres unmarked) [Example 3-8]
10000 to 20000 | NCC(O)COc1cccc(-c2nc(NCc3cn4ccsc4n3)c3cnn(C4CC4)c3n2)c1 (centres unmarked) [Example 39-5]
> 20000 | CNCC(O)COc1cc(Cl)cc(-c2cc(N(C)CCOC)n3ncc(C(C)C)c3n2)c1 (centres unmarked) [Example 30-6]
> 20000 | CC(C)n1ncc2c(N3CCOCC3)cc(-c3cc(OCC(O)CN)cc(OC(F)(F)F)c3)nc21 (centres unmarked) [Example 24-4]

Continued, molecule first:

SMILES | IC50 [nM]
CNCC(O)COc1cccc(-c2cc(NCCCCCNC(=O)c3ccn(C)n3)c3cnn(C(C)C)c3n2)c1 (centres unmarked) [Example 64-1] | 10000 to 20000
CNCC(O)COc1cccc(-c2cc(NC(=O)NC)c3cnn(C(C)C)c3n2)c1 (centres unmarked) [Example 11-9] | > 20000
CNCC(O)COc1cc(Cl)cc(-c2cc(NC3CCOC3)c3cnn(C(C)C)c3n2)c1 (centres unmarked) [Example 9-4] | > 20000
NCC(O)COc1cccc(-c2nc(NCc3nccs3)c3cnn(C4CC4)c3n2)c1 (centres unmarked) [Example 18-5] | > 20000
NCC(O)COc1cccc(-c2nc(NCc3cccnc3)c3cnn(C4CC4)c3n2)c1 (centres unmarked) [Example 11-5] | > 20000
CNCC(O)COc1cc(OC)cc(-c2cc(N3CCC(O)CC3)n3ncc(C(C)C)c3n2)c1 (centres unmarked) [Example 37-6] | > 20000
CNCC(O)COc1cc(Cl)cc(-c2cc(NC3CCOCC3)n3ncc(C(C)(C)C)c3n2)c1 (centres unmarked) [Example 48-6] | > 20000
CNCC(O)COc1cc(OC)cc(-c2cc(N3CC4(CCOCC4)C3)n3ncc(C(C)C)c3n2)c1 (centres unmarked) [Example 49-6] | > 20000
CNCC(O)COc1cc(CO)cc(-c2cc(NC3CCOCC3)c3cnn(C(C)C)c3n2)c1 (centres unmarked) [Example 23-9] | > 20000
CNCC(O)COc1cc(NC)cc(-c2cc(N3CCOCC3)n3ncc(C(C)C)c3n2)c1 (centres unmarked) [Example 21-6] | > 20000
CNCC(O)COc1cccc(-c2nc(N3[C@@H]4CC[C@H]3COC4)c3cnn(C4CC4)c3n2)c1 (some centres unmarked) [Example 5-5] | > 20000
